From ChEMBL document CHEMBL5653631, “A Potent and Selective ULK1 Inhibitor Suppresses Autophagy and Sensitizes Cancer Cells to Nutrient Stress” (iScience, 2018)
Values belong to the compound of their own block, whether it stands above or below them. The source made the active and inactive calls. The calls are words filed in the database; no cut-off is given here.

Columns and labels:
[1] = molecular target: SRSF protein kinase 2 (Homo sapiens) (UniProt P78362); assay: Inhibition of human recombinant SRPK2 at 500 nM related to control ULK1
[2] = molecular target: Ribosomal protein S6 kinase alpha-6 (Homo sapiens) (UniProt Q9UK32); assay: Inhibition of human recombinant RSK4 at 500 nM related to control ULK1
[3] = molecular target: Proto-oncogene tyrosine-protein kinase Src (Homo sapiens) (UniProt P12931); assay: Inhibition of human recombinant SRC at 500 nM in presence of ATP by radiometric assay relative to control
[4] = molecular target: 3-phosphoinositide-dependent protein kinase 1 (Homo sapiens) (UniProt O15530); assay: Inhibition of human recombinant PDK1 at 500 nM in presence of ATP by radiometric assay relative to control
[5] = molecular target: Tyrosine-protein kinase Blk (Homo sapiens) (UniProt P51451); assay: Inhibition of human recombinant BLK at 15 nM related to control ULK1
[6] = molecular target: Activin receptor type-2A (Homo sapiens) (UniProt P27037); assay: Inhibition of human recombinant ACTR2 at 15 nM related to control ULK1
[7] = molecular target: Serine/threonine-protein kinase NIM1 (Homo sapiens) (UniProt Q8IY84); assay: Inhibition of human recombinant NIM1 at 15 nM in presence of ATP by radiometric assay relative to control
[8] = molecular target: T1, Eukaryotic translation initiation factor 2-alpha kinase 3 (Homo sapiens) (UniProt Q9NZJ5); assay: Inhibition of human recombinant PEK at 15 nM related to control ULK1
T1 sequence (whole entry): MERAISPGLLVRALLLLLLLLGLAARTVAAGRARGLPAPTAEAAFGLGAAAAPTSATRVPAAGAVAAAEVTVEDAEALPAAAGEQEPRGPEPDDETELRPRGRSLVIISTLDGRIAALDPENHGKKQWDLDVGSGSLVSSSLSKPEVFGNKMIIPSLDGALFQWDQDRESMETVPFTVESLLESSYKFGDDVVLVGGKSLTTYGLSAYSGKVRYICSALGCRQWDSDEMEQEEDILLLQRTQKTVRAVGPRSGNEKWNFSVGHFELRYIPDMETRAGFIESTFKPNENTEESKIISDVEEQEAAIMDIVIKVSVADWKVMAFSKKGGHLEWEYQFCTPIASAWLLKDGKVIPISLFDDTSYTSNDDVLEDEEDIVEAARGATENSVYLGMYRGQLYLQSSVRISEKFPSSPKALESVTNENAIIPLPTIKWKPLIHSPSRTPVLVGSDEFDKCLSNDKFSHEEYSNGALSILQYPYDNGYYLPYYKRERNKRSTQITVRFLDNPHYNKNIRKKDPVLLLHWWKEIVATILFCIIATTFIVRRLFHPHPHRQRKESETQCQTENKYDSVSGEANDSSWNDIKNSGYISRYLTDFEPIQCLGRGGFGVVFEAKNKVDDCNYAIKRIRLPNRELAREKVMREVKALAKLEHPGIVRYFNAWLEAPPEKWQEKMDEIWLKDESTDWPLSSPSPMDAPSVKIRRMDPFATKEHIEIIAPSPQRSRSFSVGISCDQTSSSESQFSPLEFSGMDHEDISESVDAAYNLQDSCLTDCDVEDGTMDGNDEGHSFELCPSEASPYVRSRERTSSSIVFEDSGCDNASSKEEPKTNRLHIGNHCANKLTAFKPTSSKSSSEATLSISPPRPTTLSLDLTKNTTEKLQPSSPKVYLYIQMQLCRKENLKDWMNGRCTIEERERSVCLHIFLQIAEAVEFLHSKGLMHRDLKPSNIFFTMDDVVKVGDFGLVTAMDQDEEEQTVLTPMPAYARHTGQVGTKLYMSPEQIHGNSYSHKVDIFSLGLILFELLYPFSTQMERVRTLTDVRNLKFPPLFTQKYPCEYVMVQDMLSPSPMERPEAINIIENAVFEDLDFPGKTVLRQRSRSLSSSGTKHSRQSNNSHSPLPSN

[9] = molecular target: T2, Serine/threonine-protein kinase 3 (Homo sapiens) (UniProt Q13188); assay: Inhibition of human recombinant MST2 at 15 nM related to control ULK1
T2 sequence (whole entry): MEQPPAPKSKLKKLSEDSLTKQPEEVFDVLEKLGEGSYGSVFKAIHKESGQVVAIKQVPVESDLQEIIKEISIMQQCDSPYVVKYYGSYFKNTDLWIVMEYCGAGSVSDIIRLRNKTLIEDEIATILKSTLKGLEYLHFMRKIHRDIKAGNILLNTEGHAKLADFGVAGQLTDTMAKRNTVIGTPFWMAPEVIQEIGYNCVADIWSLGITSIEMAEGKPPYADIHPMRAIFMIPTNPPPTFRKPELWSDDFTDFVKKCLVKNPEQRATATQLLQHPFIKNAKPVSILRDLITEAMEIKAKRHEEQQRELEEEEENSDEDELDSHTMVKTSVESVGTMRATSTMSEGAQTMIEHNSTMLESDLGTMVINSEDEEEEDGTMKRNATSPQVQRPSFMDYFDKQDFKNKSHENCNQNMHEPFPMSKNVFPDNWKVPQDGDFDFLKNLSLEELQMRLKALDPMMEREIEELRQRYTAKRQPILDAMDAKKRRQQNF

[10] = molecular target: T3, Calcium/calmodulin-dependent protein kinase type IV (Homo sapiens) (UniProt Q16566); assay: Inhibition of human recombinant CaMK4 at 40 nM related to control ULK1
T3 sequence (whole entry): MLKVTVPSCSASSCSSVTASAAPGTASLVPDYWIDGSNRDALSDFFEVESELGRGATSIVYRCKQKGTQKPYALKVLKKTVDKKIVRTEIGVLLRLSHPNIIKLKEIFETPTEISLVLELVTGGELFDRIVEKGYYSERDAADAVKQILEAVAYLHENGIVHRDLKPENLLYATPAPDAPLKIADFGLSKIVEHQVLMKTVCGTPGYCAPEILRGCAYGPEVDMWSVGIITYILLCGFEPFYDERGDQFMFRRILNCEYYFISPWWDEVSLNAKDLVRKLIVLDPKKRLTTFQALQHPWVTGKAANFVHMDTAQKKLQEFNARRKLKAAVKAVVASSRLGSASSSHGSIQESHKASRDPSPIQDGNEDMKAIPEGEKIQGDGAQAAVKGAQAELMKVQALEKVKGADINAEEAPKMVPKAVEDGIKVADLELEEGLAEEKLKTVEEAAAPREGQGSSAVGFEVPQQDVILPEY

[11] = molecular target: Tyrosine-protein kinase SYK (Homo sapiens) (UniProt P43405); assay: Inhibition of human recombinant SYK at 40 nM related to control ULK1
[12] = system: U2OS; assay: Inhibition of autophagy in human U2OS cells assessed as BafA1-induced LC3B-II accumulation upto 5 uM preincubated with compound for 3 hrs followed by BafA1 induction and measured after 1 hr by immunoblotting analysis; type: functional, cell-based; settings: time 4.0 hrs

fold change (FC) [1]: 0.07
fold change (FC) [2]: 0.45
inhibition [3]: 19%
inhibition [4]: 4%
Structure (SMILES): CNC(=O)c1ccccc1Oc1nc(Nc2cc(OC)c(OC)c(OC)c2)ncc1Br

fold change (FC) [5]: 0.11
fold change (FC) [6]: 0.05
inhibition [7]: 6%
fold change (FC) [8]: 0
fold change (FC) [9]: 0.03
Structure (SMILES): CC(C)[C@H](NC(=O)c1cc(-c2cnn3cc(-c4ccc(OCCN5CCCCC5)cc4)cnc23)cs1)C(F)(F)F

fold change (FC) [10]: 0
fold change (FC) [11]: 0
Structure (SMILES): O=C(N[C@@H](C1CC1)C(F)(F)F)c1cc(-c2cnn3cc(-c4ccc(F)cc4)cnc23)cs1
inhibition [12]: Active
